“Also recorded” adds a separate entry of the source. No end group written: not given here. *: point of attachment. Octanoyl = CCCCCCCC(=O)*
What was measured:
GH deficient subjects [1] = experiment: Insulin sensitivity judged from areas under the curve of glucose, insulin and FFA (FIG. 8, FIG. 9); format: in vivo, human
Description: Eight male subjects with a pituitary insufficiency but otherwise healthy, were asked to participate (range 21-69 yrs (age 55±10; mean±standard error of mean or SEM)) and a body mass index of 29.4±2.8 (mean±SEM). […] All subjects were admitted at the Clinical Research Unit. No alcoholic beverages were allowed from the day prior to admission until the end of the study. Also, all subjects were asked to skip the administration of their GH replacement every night prior to each of the 5 admission days. All subjects gave their written informed consent to participate in the study, which had been approved the hospital's Ethical Committee. […] Insulin was assessed with a radioimmunoassay (Medgenix Diagnostics, Brussels, Belgium; intra- and interassay coefficient of variation (CV) 13.7 and 8.0% respectively). Glucose was assessed with an automatic hexokinase method (Roche, Almere, The Netherlands). Free fatty acids were determined with an enzymatic […] method (Wako Chemicals GmbH, Neuss, Germany; intra- and interassay CV 1.1 and 4.1% respectively). Differences between the several study days were calculated, using a Newman-Keuls Multiple Comparison one-way ANOVA test (GraphPad Prism 4 for Windows; GraphPad Inc. USA). […] Areas under the curve were calculated using the trapezoid rule.

GH deficient subjects [2] = experiment: Serum glucose concentrations after i.v. AG, UAG, AG+GH or AG+UAG, before and after a standard lunch; format: in vivo, human; conditions: for effect on serum glucose levels after a standard lunch: GH deficient subjects; for effect on serum glucose levels: first two hours after i.v. administration, before lunch, fasting
Description: (§1) Eight male subjects with a pituitary insufficiency but otherwise healthy, were asked to participate (range 21-69 yrs (age 55±10; mean±standard error of mean or SEM)) and a body mass index of 29.4±2.8 (mean±SEM). […] All subjects were admitted at the Clinical Research Unit. No alcoholic beverages were allowed from the day prior to admission until the end of the study. Also, all subjects were asked to skip the administration of their GH replacement every night prior to each of the 5 admission days. All subjects gave their written informed consent to participate in the study, which had been approved the hospital's Ethical Committee.
(§2) All subjects underwent the following five testing sessions, each after an overnight fast, in random order and at least 1 week apart: 1) placebo (saline 3 ml iv). 2) acylated ghrelin (Neosystem S.A.; Strasbourg, France; 1.0 μg/kg iv, using a bacterial filter system). 3) unacylated ghrelin (Neosystem S.A.; Strasbourg, France; 1.0 μg/kg iv, using a filter system). 4) acylated ghrelin (1.0 μg/kg iv) but this time after the normal GH replacement dose was administered 15 minutes before. 5) acylated ghrelin in combination with unacylated ghrelin (both 1.0 μg/kg iv, but via separate injection sites). All tests started in the morning at 09:30 am, 30′ after one or two indwelling catheters had been placed into an antecubital vein, kept patent by slow infusion of isotonic saline.
(§3) This meal was taken by all subjects all tests days.
(§4) Insulin was assessed with a radioimmunoassay (Medgenix Diagnostics, Brussels, Belgium; intra- and interassay coefficient of variation (CV) 13.7 and 8.0% respectively). Glucose was assessed with an automatic hexokinase method (Roche, Almere, The Netherlands). Free fatty acids were determined with an enzymatic […] method (Wako Chemicals GmbH, Neuss, Germany; intra- and interassay CV 1.1 and 4.1% respectively).
(§5) Differences between the several study days were calculated, using a Newman-Keuls Multiple Comparison one-way ANOVA test (GraphPad Prism 4 for Windows; GraphPad Inc. USA). P-values <0.05 were considered significant. Areas under the curve were calculated using the trapezoid rule.

[3] = Serum total and acylated ghrelin concentrations after i.v. bolus injection (radioimmunoassay); design: species or system human; conditions: in vivo, iv
Description: as §1
All subjects underwent the following five testing sessions, each after an overnight fast, in random order and at least 1 week apart: 1) placebo (saline 3 ml iv). 2) acylated ghrelin (Neosystem S.A.; Strasbourg, France; 1.0 μg/kg iv, using a bacterial filter system). […]
Acylated and total ghrelin concentrations were measured, using a commercially available radioimmunoassay (Linco research Inc. Missouri, USA). […] The lowest level of ghrelin that can be detected by this assay is […] when using a 100 μl sample size. […]
(§6) Differences between the several study days were calculated, using a Newman-Keuls Multiple Comparison one-way ANOVA test (GraphPad Prism 4 for Windows; GraphPad Inc. USA). […] Areas under the curve were calculated using the trapezoid rule.

GH deficient subjects [4] = experiment: Serum insulin concentrations after i.v. AG, UAG, AG+GH or AG+UAG, before and after a standard lunch; format: in vivo, human; conditions: for effect on serum insulin levels after a standard lunch: GH deficient subjects; for effect on serum insulin levels: first two hours after i.v. administration, before lunch, fasting
Description: as §1, §2, §3, §4, §5

GH deficient subjects [5] = experiment: Serum free fatty acid concentrations after i.v. AG, UAG, AG+GH or AG+UAG, before and after a standard lunch; format: in vivo, human; conditions: compounds administered 2-6 hrs before
Description: as §1, with “Committee. […]” for “Committee.”
as §4, §6

GH secretion = conditions: compared with Ghrelin-28; cited from earlier work
cloned cells = conditions: cited from earlier work

| Molecule | duration of decrease in insulin sensitivity after administration (GH deficient subjects [1]; after administration of acylated ghrelin) | effect on insulin sensitivity (GH deficient subjects [1]; period following lunch, AUC (FIG. 9)) | effect on serum glucose levels after a standard lunch (GH deficient subjects [2]) | effect on serum glucose levels (GH deficient subjects [2]) | effect on serum glucose levels (GH deficient subjects [2]; listed as acylated ghrelin) | effect on unacylated ghrelin levels [3] | effect on serum insulin levels after a standard lunch (GH deficient subjects [4]) | effect on serum insulin levels (GH deficient subjects [4]) | effect on serum FFA levels after a standard lunch (GH deficient subjects [5]) | effect on serum glucose levels (GH deficient subjects [2]; listed as unacylated ghrelin) | induction of GH secretion (GH secretion) | Ca2+ fluxes (cloned cells) |
| --- | --- | --- | --- | --- | --- | --- | --- | --- | --- | --- | --- | --- |
| CCCCCCCC(=O)OC[C@H](NC(=O)[C@H](CO)NC(=O)CN)C(=O)N[C@@H](Cc1ccccc1)C(=O)N[C@@H](CC(C)C)C(=O)N[C@@H](CO)C(=O)N1CCC[C@H]1C(=O)N[C@@H](CCC(=O)O)C(=O)N[C@@H](Cc1cnc[nH]1)C(=O)N[C@@H](CCC(N)=O)C(=O)N[C@@H](CCCNC(=N)N)C(=O)N[C@H](C(=O)N[C@@H](CCC(N)=O)C(=O)N[C@@H](CCC(N)=O)C(=O)N[C@@H](CCCNC(=N)N)C(=O)N[C@@H](CCCCN)C(=O)N[C@@H](CCC(=O)O)C(=O)N[C@@H](CO)C(=O)N[C@@H](CCCCN)C(=O)N[C@@H](CCCCN)C(=O)N1CCC[C@H]1C(=O)N1CCC[C@H]1C(=O)N[C@@H](C)C(=O)N[C@@H](CCCCN)C(=O)N[C@@H](CC(C)C)C(=O)N[C@@H](CCC(N)=O)C(=O)N1CCC[C@H]1C(=O)N[C@@H](CCCNC(=N)N)C(=O)O)C(C)C [AG] | at least 6 hours | decreases insulin sensitivity, compared to placebo | increase serum glucose levels significantly | induces a significant hyperglycemia | immediately increases glucose and insulin levels | induces an acute increase in unacylated ghrelin levels | increased insulin levels the most | immediately increases glucose and insulin levels | significantly increased FFA levels after lunch, compared to placebo |  |  |  |
| CC(C)C[C@H](NC(=O)[C@H](CCCCN)NC(=O)[C@H](C)NC(=O)[C@@H]1CCCN1C(=O)[C@@H]1CCCN1C(=O)[C@H](CCCCN)NC(=O)[C@H](CCCCN)NC(=O)[C@H](CO)NC(=O)[C@H](CCC(=O)O)NC(=O)[C@H](CCCCN)NC(=O)[C@H](CCCNC(=N)N)NC(=O)[C@H](CCC(N)=O)NC(=O)[C@H](CCC(N)=O)NC(=O)[C@@H](NC(=O)[C@H](CCCNC(=N)N)NC(=O)[C@H](CCC(N)=O)NC(=O)[C@H](Cc1c[nH]cn1)NC(=O)[C@H](CCC(=O)O)NC(=O)[C@@H]1CCCN1C(=O)[C@H](CO)NC(=O)[C@H](CC(C)C)NC(=O)[C@H](Cc1ccccc1)NC(=O)[C@H](CO)NC(=O)[C@H](CO)NC(=O)CN)C(C)C)C(=O)N[C@@H](CCC(N)=O)C(=O)N1CCC[C@H]1C(=O)N[C@@H](CCCNC(=N)N)C(=O)O [UAG] |  |  | increase serum glucose levels significantly; also recorded: increases serum glucose levels significantly more than AG | to a lesser extent, UAG, induces a significant hyperglycemia |  |  | increased insulin levels the most, followed UAG | This does not occur | could not be observed | This does not occur |  |  |
| Gly-Ser-[octanoyl]Ser-Phe-Leu-Ser-Pro-Glu-His-Gln-Arg-Val-Gln-Arg-Lys-Glu-Ser-Lys-Lys-Pro-Pro-Ala-Lys-Leu-Gln-Pro-Arg (GSS(Octanoyl)FLSPEHQRVQRKESKKPPAKLQPR; listed as Homo sapiens) [des Gln-14 ghrelin] |  |  |  |  |  |  |  |  |  |  | induces GH secretion with similar potency as Ghrelin-28 | elicits Ca^2+ fluxes in cloned cells |

Source: patent publication US7825090B2, “Use of ghrelin and unacylated ghrelin compositions for treating insulin resistance” (Alizé Pharma SAS, priority 2004, dated 2010)
